From patent publication US10105384B2, “Nucleic acids targeting TCTP for use in the treatment of chemo- or hormone-resistant cancers” (INSTITUT NATIONAL DE LA SANTE ET DE LA RECHERCHE MEDICALE …, priority 2010, dated 2018)
d = 2'-deoxy (DNA); r = 2'-OH (RNA)

What was measured:
Type in all cases: cell-based, human
TCTP = TCTP mRNA and protein expression tests in LNCaP and PC3 cells
Experimental: TCTP mRNA and protein expression tests were carried out in LNCaP and PC3 cells exposed to a TCTP ASO of SEQ ID NO: 2 or a TCTP siRNA of SEQ ID NO: 3.

PC-3 cells [1] = assay: MTT cell growth assay, PC-3 cells; details: for enhancement of docetaxel sensitivity: PC-3 cells, 50 nM docetaxel 24 h, MTT
Experimental: In brief, cells were seeded in each well of 12-well microtiter plates (30 000 to 50 000 cells per well) and allowed to attach overnight. To study the effect of TCTP downregulation on apoptosis induced by docetaxel, PC-3 cells were transiently transfected the day after seeding with 5 nM of TCTP siRNA for 48 h or 100 nM of TCTP ASO for 72 h. Cells were then treated with 50 nM of docetaxel and MTT assays were performed after 24 h. To assess the effect of TCTP downregulation on Hsp27 cytoprotection, LNCaP-Mock and -Hsp27 cells were transiently transfected the day after seeding with 5 nM of TCTP siRNA for 48 h. The down- or upregulation of TCTP effect on LNCaP and C4-2 cell viability was realized after transient transfections with 100 nM of TCTP ASO or 0.02 μg/μl of pDEST-TCTP for 72 h and 48 h respectively. Cells were then treated with 1 nM of docetaxel in serum-free media (mimics androgen withdrawal in vitro) and crystal violet assays were performed the day after. Each assay was performed in triplicate.
To assess the effect of TCTP down-regulation on CR cell growth, PC-3 cells were treated for 1 day with 5 nM TCTP siRNA or for 2 days with 100 nM TCTP ASO. At the end of the treatment, PC-3 cells were incubated with 50 nM of docetaxel. Growth rates of PC-3 cells were examined using the 3-(4,5-dimethylthiazol-2-yl)-2,5-diphenyltetrazolium bromide assay. […] The effect of the inhibition of TCTP on cell survival was analyzed in PC-3 after combined ASO and docetaxel-chemotherapy treatment. After 24 h of treatment with 50 nM of docetaxel, cell viability was determined using a MTT assay. The experiment was repeated in triplicate. *** differs from PC-3 transfected with control-siRNA (P50.001) using Statview software. […] The same effect has been observed with TCTP siRNA (SEQ ID NO: 3) and 5′-[…]-3′ (SEQ ID NO: 14) and 5′-[…]-3′ (SEQ ID NO: 15) ASOs.
(§1) PC3 cells were transfected with a TCTP siRNA of SEQ ID NO: 3. Cell proliferation and apoptosis were studied using respectively MTT (3-(4,5-dimethylthiazol-2-yl)-2,5-diphenyl tetrazolium bromure) assay and flow cytometry.
(§2) PC3 cells were transfected with a TCTP ASO of SEQ ID NO: 2. Cell proliferation and apoptosis were studied using respectively MTT assay and flow cytometry.

PC-3 cells [2] = assay: Flow cytometry of propidium iodide-stained nuclei (apoptosis, cell cycle), PC-3 cells
Experimental: Flow cytometry of propidium iodide-stained nuclei was performed as described previously (Rocchi et al., 2004, Cancer Res. 64:6595-602). In brief, PC-3 cells were plated at the density of 10^6 cells into 10 cm dishes in DMEM supplemented with 10% FCS. To assess the effect of TCTP inhibition on apoptosis and cell cycle, cells were treated the day after seeding with 5 nM of siRNA TCTP or control and 100 nM of ASO TCTP or scrambled control for 48 h. Cells were then treated with 50 nM of docetaxel. After 24 h, the cells were analyzed for relative DNA content on a dual laser flow cytometer (FACSCalibur, Becton Dickinson Biosciences, Le Pont de Claix, France). Each assay was performed in triplicate.
Flow cytometry was used to quantify the percentage of cells in each cell cycle phase three days after the siRNA treatment. After the treatment of PC-3 cells with 5 nM TCTP siRNA for 1 day, the fraction of cells undergoing apoptosis (sub-G1/G0 fraction) was 25% higher after treatment with 5 nM TCTP siRNA compared with scrambled control siRNA (**, P≤0.01; FIG. 6, upper panel). Using TCTP ASO treatment alone, we found an increase of 75% in sub-G0G1 fraction (***, P≤0.001; FIG. 6, middle and bottom panel), enhanced by the 50 nM docetaxel treatment (90% in sub-G0-G1 fraction, ***, P≤0.001). […] The fraction of PC-3 in S phase was 20 to 40% lower after TCTP siRNA or ASO treatments respectively compared to the scrambled controls (FIG. 6). […] The rate of apoptotic PC-3 cells after TCTP silencing with different ASO concentrations was explored with the Invitrogen countess (FIG. 6 and FIG. 7A). PC-3 cells were treated with 70, 100 or 200 nM of TCTP ASO or control. Cells were harvested 3 days after treatment and […] of trypan blue was added before analysis with Invitrogen Countess. […] Moreover, TCTP has been reported to interact with caspase-3, thereby inhibiting caspase-3 activation (Gnanasekar et al., 2009, Int J Oncol. 34:1241-6). In order to investigate the effect of TCTP silencing on caspase-3 cleavage and activity, PC-3 cells were treated daily with 100 nM TCTP or scrambled ASO for 2 days. Cells were harvested 2 days after and proteins were extracted for western blotting with a caspase-3 antibody that recognizes both full-length and cleaved caspase-3.
as §1, §2

caspase-3 = assay: Caspase-3 cleavage by western blot in PC-3 cells; details: not in control treated cells
Experimental: Western Blot analysis was performed as described previously (Rocchi et al., 2004, Cancer Res. 64:6595-602) with 1:5000 rabbit anti-Hsp27 polyclonal antibody (Assay Designs, Villeurbanne, France), 1:2000 rabbit TCTP polyclonal antibody (Abcam Inc., Cambridge, UK), 1:250 rabbit anti-MSL1v1 polyclonal antibody (Abcam Inc.), 1:500 mouse anti-ubiquitin monoclonal antibody (Santa Cruz Biotechnology Inc., Heidelberg, Germany) or 1:1000 rabbit anti-caspase-3 polyclonal antibody (Cell Signalling Technology Inc., Danvers, USA). Loading levels were normalized using 1:5000 rabbit anti-glyceraldehyde-3-phosphate dehydrogenase polyclonal (Abcam Inc.) or 1:2500 mouse anti-vinculine monoclonal antibodies (Sigma Chemical Co., St Louis, Mo., USA).
Flow cytometry was used to quantify the percentage of cells in each cell cycle phase three days after the siRNA treatment. After the treatment of PC-3 cells with 5 nM TCTP siRNA for 1 day, the fraction of cells undergoing apoptosis (sub-G1/G0 fraction) was 25% higher after treatment with 5 nM TCTP siRNA compared with scrambled control siRNA (**, P≤0.01; FIG. 6, upper panel). Using TCTP ASO treatment alone, we found an increase of 75% in sub-G0G1 fraction (***, P≤0.001; FIG. 6, middle and bottom panel), enhanced by the 50 nM docetaxel treatment (90% in sub-G0-G1 fraction, ***, P≤0.001). […]

| Substance | expression of TCTP (mRNA and protein) (TCTP) | reduction in PC-3 cell growth (PC-3 cells [1]; 5 nM siRNA alone, 4 days after treatment, compared to scrambled control) [%] | enhancement of docetaxel sensitivity (PC-3 cells [1]) | decrease of proliferation of PC3 cells (PC-3 cells [1]; TCTP siRNA, MTT assay (summary, FIG. 12)) [%] | fraction of cells undergoing apoptosis (sub-G1/G0 fraction) higher than scrambled control siRNA (PC-3 cells [2]; PC-3, 5 nM siRNA for 1 day) [%] | increase of the percentage of apoptotic cells (PC-3 cells [2]; TCTP siRNA, PC3, flow cytometry (summary, FIG. 12)) [%] | fraction of PC-3 in S phase lower than scrambled control (PC-3 cells [2]; siRNA treatment) [%] | active cleaved caspase-3 fragments (17-20 kDa) (caspase-3) | decrease of proliferation of PC3 cells (PC-3 cells [1]; TCTP ASO, MTT assay (summary, FIG. 13)) [%] | fraction of PC-3 in S phase lower than scrambled control (PC-3 cells [2]; ASO treatment) [%] | increase in sub-G0-G1 fraction (PC-3 cells [2]; PC-3, TCTP ASO plus 50 nM docetaxel) [%] | increase in sub-G0G1 fraction (PC-3 cells [2]; PC-3, TCTP ASO treatment alone) [%] | increase of the percentage of apoptotic cells (PC-3 cells [2]; TCTP ASO, PC3, flow cytometry (summary, FIG. 13)) [%] |
| --- | --- | --- | --- | --- | --- | --- | --- | --- | --- | --- | --- | --- | --- |
| 5′-AACCCGUCCGCGAUCUCCCdGdG-3′ (AACCCGUCCGCGAUCUCCCGG; siRNA; sugars from the 5' end r19 d2, backbone not given here) [TCTP siRNA, from Qiagen] | decreases in a significant manner | 55 | same effect | 48.1 | 25 | 25.8 | 20 | presence of active cleaved caspase-3 fragments | – | – | – | – | – |
| 5′-ACCAATGAGCGAGTCATCAA-3′ (phosphorothioate backbone, further chemistry not given here) [ASO10] | decreases in a significant manner | – | up to 25% | – | – | – | – | presence of active cleaved caspase-3 fragments | 58 | 40 | 90 | 75 | 70 |
